For 25 compounds, IC50 results are on record in patent publication US20240124422A1, “MUTANT PI3K-ALPHA INHIBITORS AND THEIR USE AS PHARMACEUTICALS” (Prelude Therapeutics Incorporated, priority 2022, published 2024).

Assay [1] has as its system phosphorylation of AKT on Ser473 as a readout of the PI3K pathway in T-47D (heterozygous PIK3CA H1047R) cells. In words: PI3K pathway activation assay, pAKT Ser473 HTRF, T-47D cells. It is filed as cell-based. To be noted: Homo sapiens, T47D, 2 h, two hours of treatment. Put shortly: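 pAKT Ser473 measured by HTRF in SKBR3 (PIK3CA WT) and T-47D (PIK3CA H1047R) cells, 4,000/well. Signal normalised to background and DMSO controls as percent inhibition.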

Assay [2] relates to phosphorylation of AKT on Ser473 as a readout of the PI3K pathway in SKBR3 (PIK3CA WT) cells. In words: PI3K pathway activation assay, pAKT Ser473 HTRF, SKBR3 cells. To be noted: Homo sapiens, SK-BR-3, 2 h, two hours of treatment. Format: cell-based. How it is done: The inhibitory activity of compounds was evaluated by measuring phosphorylation of AKT on Ser473 as a readout of the PI3K pathway using HTRF (CisBio catalog number: 64AKSPE). These studies were conducted in the T-47D (heterozygous PIK3CA H1047R) and SKBR3 (PIK3CA WT) cell lines. Cells were maintained in a 37° C. incubator at 5% CO2 in the following media: T-47D: RPMI 1640, ATCC© Modification (Gibco, A10491-01) supplemented with 10% v/v FBS (Gibco, 26140-079), 1% penicillin streptomycin (Gibco, 15140-122), and 7.4 ug/mL insulin (MilliporeSigma, I9278); SKBR3: McCoy's 5a (Modified) Medium (Gibco, 16600-082) supplemented with 10% v/v FBS (Gibco, 26140-079). Cells were seeded in 384-well plates at a density of 4,000 cells/well. Compounds dissolved in DMSO were added using a digital dispense (D300E, Tecan) 10-point serial dilution. After two hours of treatment, cells were lysed for thirty minutes and then incubated with detection reagents per HTRF kit material and manufacturer's instructions. Fluorescence signal was measured with a multimode plate reader (Envision 2105, Perkin Elmer). Fluorescent signal was normalized to background and DMSO controls to obtain percent inhibition/activity for each compound.

Some results are limits rather than exact numbers.

Regarding `Cc1cc(C(C)Nc2ccccc2C(=O)O)c2nc(N3Cc4ccc(F)cc4C3)n(C)c(=O)c2c1` (centres unmarked) [Example 2, 2-((1-(2-(5-fluoroisoindolin-2-yl)-3,6-dimethyl-4-oxo-3,4-dihydroquinazolin-8-yl)ethyl)amino)benzoic acid], the IC50 in assay [1] is less than 0.5 µM; in assay [2], more than 10 µM.

In the case of `Cc1cc(C(C)Nc2ccccc2C(N)=O)c2nc(N3Cc4ccccc4C3)n(C)c(=O)c2c1` (centres unmarked) [Example 4, 2-((1-(2-(isoindolin-2-yl)-3,6-dimethyl-4-oxo-3,4-dihydroquinazolin-8-yl)ethyl)amino)benzamide], the half-maximal inhibitory concentration (IC50) in assay [1] is 0.5 to 10 µM; in assay [2], more than 10 µM.

As to `Cc1cc(C(C)Nc2ccccc2S(N)(=O)=O)c2nc(N3Cc4ccccc4C3)n(C)c(=O)c2c1` (centres unmarked) [Example 6, 2-((1-(2-(isoindolin-2-yl)-3,6-dimethyl-4-oxo-3,4-dihydroquinazolin-8-yl)ethyl)amino)benzenesulfonamide], the half-inhibitory concentration (IC50) in assay [1] is less than 0.5 µM; in assay [2], more than 10 µM.

For `CNS(=O)(=O)c1ccccc1NC(C)c1cc(C)cc2c(=O)n(C)c(N3Cc4ccccc4C3)nc12` (centres unmarked) [Example 7, 2-((1-(2-(isoindolin-2-yl)-3,6-dimethyl-4-oxo-3,4-dihydroquinazolin-8-yl)ethyl)amino)-N-methylbenzenesulfonamide], the values for the half-maximal inhibitory concentration (IC50) in assay [1] and in assay [2] were 0.5 to 10 µM and more than 10 µM, respectively.

Turning to `Cc1cc(C(C)Nc2ccccc2S(C)(=O)=O)c2nc(N3Cc4ccccc4C3)n(C)c(=O)c2c1` (centres unmarked) [Example 8, 2-(isoindolin-2-yl)-3,6-dimethyl-8-(1-((2-(methylsulfonyl)phenyl)amino)ethyl)quinazolin-4(3H)-one], the half-inhibitory concentration (IC50) in assay [1] was 0.5 to 10 µM; in assay [2] it was more than 10 µM.

Regarding `Cc1cc(C(C)Nc2ccccc2-c2nnn[nH]2)c2nc(N3Cc4ccccc4C3)n(C)c(=O)c2c1` (centres unmarked) [Example 9, 8-(1-((2-(1H-tetrazol-5-yl)phenyl)amino)ethyl)-2-(isoindolin-2-yl)-3,6-dimethylquinazolin-4(3H)-one], the IC50 was 0.5 to 10 µM in assay [1] and more than 10 µM in assay [2].

On to `Cc1cc(C(C)Nc2ccccc2C(=O)NO)c2nc(N3Cc4ccccc4C3)n(C)c(=O)c2c1` (centres unmarked) [Example 10, N-Hydroxy-2-((1-(2-(isoindolin-2-yl)-3,6-dimethyl-4-oxo-3,4-dihydroquinazolin-8-yl)ethyl)amino)benzamide], for which the IC50 in assay [1] was 0.5 to 10 µM; in assay [2], more than 10 µM.

In the case of `Cc1cc(C(C)Nc2ccc(F)c(O)c2F)c2nc(N3Cc4ccccc4C3)n(C)c(=O)c2c1` (centres unmarked) [Example 11, 8-(1-((2,4-difluoro-3-hydroxyphenyl)amino)ethyl)-2-(isoindolin-2-yl)-3,6-dimethylquinazolin-4(3H)-one], the IC50 was 0.5 to 10 µM in assay [1] and more than 10 µM in assay [2].

Take `COCCn1c(N2Cc3ccccc3C2)nc2c(C(C)Nc3ccccc3C(=O)O)cc(C)cc2c1=O` (centres unmarked) [Example 19, 2-((1-(2-(isoindolin-2-yl)-3-(2-methoxyethyl)-6-methyl-4-oxo-3,4-dihydroquinazolin-8-yl)ethyl)amino)benzoic acid]: the values for the IC50 in assay [1] and in assay [2] were 0.5 to 10 µM and more than 10 µM, respectively.

As to `Cc1cc(C(C)Nc2ccc(F)c(F)c2C(=O)O)c2nc(N3Cc4ccccc4C3)n(CCCF)c(=O)c2c1` (centres unmarked) [Example 20, 2,3-difluoro-6-((1-(3-(3-fluoropropyl)-2-(isoindolin-2-yl)-6-methyl-4-oxo-3,4-dihydroquinazolin-8-yl)ethyl)amino)benzoic acid], the IC50 was less than 0.5 µM in assay [1] and more than 10 µM in assay [2].

Turning to `Cc1cc(C(C)Nc2ccccc2C(=O)O)c2nc(N3Cc4ccccc4C3)n(C(C)C)c(=O)c2c1` (centres unmarked) [Example 21, 2-((1-(2-(isoindolin-2-yl)-3-isopropyl-6-methyl-4-oxo-3,4-dihydroquinazolin-8-yl)ethyl)amino)benzoic acid], the IC50 in assay [1] is less than 0.5 µM; in assay [2], more than 10 µM.

Regarding `Cc1cc(C(C)Nc2ccccc2C(=O)O)c2nc(N3Cc4ccccc4C3)[nH]c(=O)c2c1` (centres unmarked) [Example 22, 2-((1-(2-(isoindolin-2-yl)-6-methyl-4-oxo-3,4-dihydroquinazolin-8-yl)ethyl)amino)benzoic acid], the IC50 in assay [1] was less than 0.5 µM; in assay [2], more than 10 µM.

As for `Cc1cc(C(C)Nc2cc(C#N)ccc2C(=O)O)c2nc(N3CC4CC4C3)n(C)c(=O)c2c1` (centres unmarked) [Example 23, 2-((1-(2-(3-azabicyclo[3.1.0]hexan-3-yl)-3,6-dimethyl-4-oxo-3,4-dihydro-quinazolin-8-yl)ethyl)amino)-4-cyanobenzoic acid], the IC50 was 0.5 to 10 µM in assay [1] and more than 10 µM in assay [2].

Turning to `Cc1cc(C(C)Nc2cccnc2C(=O)O)c2nc(N3Cc4ccccc4C3)n(C)c(=O)c2c1` (centres unmarked) [Example 28, 3-((1-(2-(isoindolin-2-yl)-3,6-dimethyl-4-oxo-3,4-dihydroquinazolin-8-yl)ethyl)amino)picolinic acid], the IC50 in assay [1] was 0.5 to 10 µM; in assay [2] it was more than 10 µM.

On to `Cc1cc(C(C)Nc2ccc(C#N)cc2C(=O)O)c2nc(N3Cc4ccccc4C3)n(C)c(=O)c2c1` (centres unmarked) [Example 31, 5-cyano-2-((1-(2-(isoindolin-2-yl)-3,6-dimethyl-4-oxo-3,4-dihydroquinazolin-8-yl)ethyl)amino)benzoic acid], for which the values for the IC50 in assay [1] and in assay [2] were less than 0.5 µM and more than 10 µM, respectively.

Regarding `Cc1cc(C(C)Nc2cn(C)nc2C(=O)O)c2nc(N3Cc4ccccc4C3)n(C)c(=O)c2c1` (centres unmarked) [Example 34, 4-((1-(2-(isoindolin-2-yl)-3,6-dimethyl-4-oxo-3,4-dihydroquinazolin-8-yl)ethyl)amino)-1-methyl-1H-pyrazole-3-carboxylic acid], the values for the IC50 in assay [1] and in assay [2] were 0.5 to 10 µM and more than 10 µM, respectively.

On to `Cc1cc(C(C)Nc2ccc(F)c(F)c2C(=O)O)c2nc(N3Cc4ccccc4C3)n(C)c(=O)c2c1` (centres unmarked) [Example 35, 2,3-difluoro-6-((1-(2-(isoindolin-2-yl)-3,6-dimethyl-4-oxo-3,4-dihydroquinazolin-8-yl)ethyl)amino)benzoic acid], for which the results for the IC50 in assay [1] and in assay [2] were less than 0.5 µM and more than 10 µM, respectively.

`Cc1cc(C(C)Nc2ccccc2C(=O)O)c2nc(N3CCC4(CC4)C3)n(C)c(=O)c2c1` (centres unmarked) [Example 39, 2-[1-[2-(5-azaspiro[2.4]heptan-5-yl)-3,6-dimethyl-4-oxoquinazolin-8-yl]ethyl-amino]benzoic acid]: the IC50 in assay [1] was less than 0.5 µM; in assay [2], more than 10 µM.

Consider `COc1nc2c(C(C)Nc3ccccc3C(=O)O)cc(C)cc2c(=O)n1C` (centres unmarked) [Example 41, 2-[1-(2-methoxy-3,6-dimethyl-4-oxoquinazolin-8-yl)ethylamino]benzoic acid], for which the values for the IC50 in assay [1] and in assay [2] were 0.5 to 10 µM and more than 10 µM, respectively.

`CSc1nc2c(C(C)Nc3ccccc3C(=O)O)cc(C)cc2c(=O)n1C` (centres unmarked) [Example 43, 2-[1-(3,6-dimethyl-2-methylsulfanyl-4-oxoquinazolin-8-yl)ethylamino]benzoic acid]: the IC50 is 0.5 to 10 µM in assay [1] and more than 10 µM in assay [2].

As for `CC(=O)N1CCN(c2nc3c(C(C)Nc4ccccc4C(=O)O)cc(C)cc3c(=O)n2C)CC1` (centres unmarked) [Example 46, 2-((1-(2-(4-acetylpiperazin-1-yl)-3,6-dimethyl-4-oxo-3,4-dihydroquinazolin-8-yl)ethyl)amino)benzoic acid], the results for the IC50 in assay [1] and in assay [2] were 0.5 to 10 µM and more than 10 µM, respectively.

Take `Cc1cc(C(C)Nc2ccccc2C(=O)O)c2nc(N3Cc4ccccc4C3)n([C@H]3C[C@H](O)C3)c(=O)c2c1` (some centres unmarked) [Example 48, 2-((1-(3-((1r,3r)-3-Hydroxycyclobutyl)-2-(isoindolin-2-yl)-6-methyl-4-oxo-3,4-dihydroquinazolin-8-yl)ethyl)amino)benzoic acid]: the values for the IC50 in assay [1] and in assay [2] were less than 0.5 µM and more than 10 µM, respectively.

`CC(Nc1ccccc1C(=O)O)c1cc(F)cc2c(=O)n(C)c(N3CC4CC4C3)nc12` (centres unmarked) [Example 49, 2-((1-(2-(3-azabicyclo[3.1.0]hexan-3-yl)-6-fluoro-3-methyl-4-oxo-3,4-dihydro-quinazolin-8-yl)ethyl)amino)benzoic acid]: the IC50 was less than 0.5 µM in assay [1] and more than 10 µM in assay [2].

Consider `Cc1cc(C(C)Nc2ccccc2C(=O)O)c2nc(N(C)C)n(C)c(=O)c2c1` (centres unmarked) [Example 54, 2-[1-[2-(dimethylamino)-3,6-dimethyl-4-oxoquinazolin-8-yl]ethylamino]benzoic acid], for which the IC50 was 0.5 to 10 µM in assay [1] and more than 10 µM in assay [2].

Consider `Cc1cc(C(C)Nc2ccccc2C(=O)O)c2nc(N3CCCCCC3)n(C)c(=O)c2c1` (centres unmarked) [Example 55, 2-((1-(2-(azepan-1-yl)-3,6-dimethyl-4-oxo-3,4-dihydroquinazolin-8-yl)ethyl)amino)benzoic acid], for which the IC50 was less than 0.5 µM in assay [1] and more than 10 µM in assay [2].
